From patent US10519098B2, “Aromatic derivatives as anti-malarial” (Council of Scientific & Industrial Research, priority 2014, dated 2019) come the findings set out here.

For orientation: IC50 means the point on the concentration scale where inhibition reaches its midpoint. The melting point is the temperature of the solid-liquid transition.

The structures appear in SMILES notation. Where two headings read alike, the source gives them in different places. Bounds are passed on as bounds.

Data set [1] has as its system Chloroquine-sensitive (3D7) strain of P. falciparum. Kind of data set: Malaria SYBR Green I-based fluorescence (MSF) assay, 3D7 strain. It is filed as cell-based. The conditions noted are these: Plasmodium falciparum. The procedure:
(§1) The stock (5 mg/mL or 10 mM) solutions of extracts were prepared in DMSO and required dilutions were made in culture medium.
(§2) Two-fold serial dilutions of test samples were made in 96 well plates and incubated with 1.0% parasitized cell suspension containing 0.8% parasitaemia (Asynchronous culture with more than 80% ring stages). The plates were incubated at 37° C. in CO2 incubator in an atmosphere of 5% CO2 and air mixture. 72 hours later 100 μL of lysis buffer containing 2× concentration of SYBR Green-I (Invitrogen) was added to each well and incubated for one hour at 37° C. The plates were examined at 485±20 nm of excitation and 530±20 nm of emission for relative fluorescence units (RFUs) per well using the fluorescence plate reader (FLX800, BIOTEK). IC50 values were obtained by Logit regression analysis of dose response curves (Singh et al. 2011).

The subject of data set [2] is Chloroquine-resistant (K1) strain of P. falciparum. Kind of data set: Malaria SYBR Green I-based fluorescence (MSF) assay, K1 strain. The settings on record: Plasmodium falciparum. It is filed as cell-based. The procedure:
as §1, §2

The next data set in a line: in vitro. The settings on record: monkey. The procedure:
The cells were incubated with test sample dilutions for 72 h and MTT was used as reagent for detection of cytotoxicity. Podophyllotoxin (SIGMA) was used as the standard reference drug.

Where [3] appears, read: P. falciparum 3D7, 72 hours incubation, read-out: IC50 against 3D7.
Setting [4] is: P. falciparum K1, 72 hours incubation, read-out: IC50 against K1.

The molecule `COc1cc([C@@H](CNC(=O)/C=C/c2ccccc2)OC(=O)/C=C/c2ccccc2)cc(OC)c1OC` [Compound 5, (S)-2-cinnamamido-1-(3,4,5-trimethoxyphenyl)ethyl cinnamate] came in with a melting point of 126 to 128 °C. The IC50 in data set [1] (3D7, range given for listed compounds, read-out: IC50 values against 3D7 culture) was 2 to 7 µM. In data set [1] (setting [3]), the IC50 is 6.69 µM. For the same molecule, in data set [2] (K1, range given for listed compounds, read-out: IC50 values against K1 culture), the IC50 is 1.5 to 4 µM. For the same molecule, the half-inhibitory concentration (IC50) in data set [2] (setting [4]) amounted to 3.64 µM. The same molecule registered a CC50 at 72 h in the data set “in vitro” of 66.7 µM.
`COc1ccccc1[C@@H](CNC(=O)/C=C/c1ccccc1)OC(=O)/C=C/c1ccccc1` [Compound 9, (S)-2-cinnamamido-1-(2-methoxyphenyl)ethyl cinnamate] gave a melting point of 112 to 114 °C. The IC50 in data set [1] (setting [3]) is greater than 5 µM. Further, the IC50 in data set [2] (setting [4]) was greater than 5 µM. The same molecule showed a CC50 at 72 h in “in vitro” of 77.8 µM.
In turn, `COc1cccc([C@H](COC(=O)/C=C/c2ccccc2)OC(=O)/C=C/c2ccccc2)c1` [Compound 16, (R)-1-(3-methoxyphenyl)ethane-1,2-diyl (2E,2′E)-bis(3-phenylacrylate)] returned a melting point of 67 to 69 °C. Moreover, the IC50 in data set [1] (setting [3]) was greater than 5 µM. Besides, in “in vitro”, the CC50 at 72 h was 22.3 µM.
The molecule `COc1ccc([C@@H](COC(=O)/C=C/c2ccccc2)OC(=O)/C=C/c2ccccc2)cc1` [Compound 19, (S)-1-(4-methoxyphenyl)ethane-1,2-diyl (2E,2′E)-bis(3-phenylacrylate)] returned a melting point of 93 to 96 °C. In addition, the concentration for half-maximal inhibition (IC50) in data set [1] (setting [3]) is greater than 5 µM. This molecule had a CC50 at 72 h in “in vitro” of 33.5 µM.
For `COc1ccc([C@H](COC(=O)/C=C/c2ccccc2)OC(=O)/C=C/c2ccccc2)cc1` [Compound 20, (R)-1-(4-methoxyphenyl)ethane-1,2-diyl (2E,2′E)-bis(3-phenylacrylate)] the same measures were 76 to 79 °C, greater than 5 µM and 23.3 µM.
The matching figures for `COc1cccc([C@@H](CNC(=O)/C=C/c2ccccc2)OC(=O)/C=C/c2ccccc2)c1OC` [Compound 21, (S)-2-cinnamamido-1-(2,3-dimethoxyphenyl)ethyl cinnamate]: 105 to 108 °C, greater than 5 µM and greater than 200 µM.
With `COc1cccc([C@H](CNC(=O)/C=C/c2ccccc2)OC(=O)/C=C/c2ccccc2)c1OC` [Compound 22, (R)-2-cinnamamido-1-(2,3-dimethoxyphenyl)ethyl cinnamate], the melting point lay within 105 to 107 °C. Besides, the IC50 in data set [1] (setting [3]) was greater than 5 µM. For the same molecule, the IC50 in data set [2] (setting [4]) was greater than 5 µM. The CC50 at 72 h in the data set “in vitro” was found to be 194 µM.
`O=C(/C=C/c1ccccc1)NC[C@@H](OC(=O)/C=C/c1ccccc1)c1ccccc1` [Compound 25, (S)-2-cinnamamido-1-phenylethyl cinnamate]: the melting point lay within 181 to 183 °C. Moreover, the concentration for half-maximal inhibition (IC50) in data set [1] (setting [3]) stood at 3.85 µM. Also, the IC50 in data set [2] (setting [4]) was greater than 10 µM. This molecule displayed a CC50 at 72 h in the data set “in vitro” of 31.7 µM.
As for `O=C(/C=C/c1ccccc1)NC[C@H](OC(=O)/C=C/c1ccccc1)c1ccccc1` [Compound 26, (R)-2-cinnamamido-1-phenylethyl cinnamate], the melting point lay in the range of 183 to 185 °C. For the same molecule, in data set [1] (setting [3]), the IC50 came to 4.72 µM. The IC50 in data set [2] (setting [4]) is greater than 10 µM. In the data set “in vitro”, this molecule returned a CC50 at 72 h of 63.9 µM.
As for `O=C(/C=C/c1ccccc1)OC[C@@H](OC(=O)/C=C/c1ccccc1)c1ccccc1` [Compound 27, (S)-1-phenylethane-1,2-diyl (2E,2′E)-bis(3-phenylacrylate)], the melting point fell in the range of 131 to 133 °C. Moreover, the IC50 in data set [1] (setting [3]) is greater than 5 µM. In “in vitro”, the CC50 at 72 h was determined as 39.1 µM.
Turning to `O=C(/C=C/c1ccccc1)OC[C@H](OC(=O)/C=C/c1ccccc1)c1ccccc1` [Compound 28, (R)-1-phenylethane-1,2-diyl (2E,2′E)-bis(3-phenylacrylate)], the melting point was 132 to 134 °C. Further, in data set [1] (setting [3]), the IC50 is greater than 5 µM. The molecule also showed a CC50 at 72 h in “in vitro” of 30.3 µM.
Regarding `Cc1ccc([C@@H](CNC(=O)/C=C/c2ccccc2)OC(=O)/C=C/c2ccccc2)cc1` [Compound 29, (S)-2-cinnamamido-1-(p-tolyl) ethyl cinnamate], the melting point lay within 139 to 140 °C. The IC50 in data set [1] (setting [3]) stood at 6.77 µM. Moreover, the concentration for half-maximal inhibition (IC50) in data set [2] (setting [4]) was greater than 10 µM. The molecule also returned a CC50 at 72 h in the data set “in vitro” of 141 µM.
For `Cc1ccc([C@H](CNC(=O)/C=C/c2ccccc2)OC(=O)/C=C/c2ccccc2)cc1` [Compound 30, (R)-2-cinnamamido-1-(p-tolyl) ethyl cinnamate] the same measures were 139 to 141 °C, 6.97 µM, greater than 10 µM and 49.4 µM.
For `Cc1ccc([C@@H](COC(=O)/C=C/c2ccccc2)OC(=O)/C=C/c2ccccc2)cc1` [Compound 31, (S)-1-(p-tolyl) ethane-1,2-diyl (2E,2′E)-bis(3-phenylacrylate)] the same measures were 103 to 105 °C, greater than 5 µM, greater than 5 µM and greater than 200 µM.
Turning to `Cc1ccc([C@H](COC(=O)/C=C/c2ccccc2)OC(=O)/C=C/c2ccccc2)cc1` [Compound 32, (R)-1-(p-tolyl) ethane-1,2-diyl (2E,2′E)-bis(3-phenylacrylate)], the melting point is 103 to 105 °C. In data set [1] (setting [3]), the IC50 is greater than 5 µM. Besides, in the data set “in vitro”, the CC50 at 72 h was greater than 200 µM.
As for `O=C(/C=C/c1ccccc1)NC[C@@H](OC(=O)/C=C/c1ccccc1)c1ccc2c(c1)OCO2` [Compound 33, (S)-1-(benzo[d][1,3]dioxol-5-yl)-2-cinnamamidoethyl cinnamate], the melting point is 186 to 190 °C. For the same molecule, the concentration for half-maximal inhibition (IC50) in data set [1] (setting [3]) was greater than 5 µM. In addition, in data set [2] (setting [4]), the IC50 is greater than 5 µM. For the same molecule, the CC50 at 72 h in “in vitro” stood at 190 µM.
The molecule `O=C(/C=C/c1ccccc1)NC[C@H](OC(=O)/C=C/c1ccccc1)c1ccc2c(c1)OCO2` [Compound 34, (R)-1-(benzo[d][1,3]dioxol-5-yl)-2-cinnamamidoethyl cinnamate] gave a melting point of 200 to 202 °C. Further, the IC50 in data set [1] (setting [3]) is greater than 5 µM. The CC50 at 72 h in the data set “in vitro” is greater than 200 µM.
The matching figures for `O=C(/C=C/c1ccccc1)OC[C@@H](OC(=O)/C=C/c1ccccc1)c1ccc2c(c1)OCO2` [Compound 35, (S)-1-(benzo[d][1,3]dioxol-5-yl)ethane-1,2-diyl(2E,2′E)-bis(3-phenyl acrylate)]: 106 to 107 °C, greater than 5 µM and 31.8 µM.
The molecule `O=C(/C=C/c1ccccc1)OC[C@H](OC(=O)/C=C/c1ccccc1)c1ccc2c(c1)OCO2` [Compound 36, (R)-1-(benzo[d][1,3]dioxol-5-yl)ethane-1,2-diyl(2E,2′E)-bis(3-phenyl acrylate)] gave a melting point of 108 to 110 °C. In data set [1] (setting [3]), the IC50 is greater than 5 µM. Besides, in the data set “in vitro”, the CC50 at 72 h turned out to be 56.6 µM.
In turn, `COc1ccc([C@@H](CNC(=O)c2ccccc2)OC(=O)c2ccccc2)cc1OC` [Compound 39, (S)-2-benzamido-1-(3,4-dimethoxyphenyl) ethyl benzoate] returned a melting point of 129 to 131 °C. In addition, the concentration for half-maximal inhibition (IC50) in data set [1] (setting [3]) is 6.67 µM. Also, the IC50 in data set [2] (setting [4]) was greater than 10 µM. The CC50 at 72 h in the data set “in vitro” was found to be 8.16 µM.
Turning to `COc1ccc([C@H](CNC(=O)c2ccccc2)OC(=O)c2ccccc2)cc1OC` [Compound 40, (R)-2-benzamido-1-(3,4-dimethoxyphenyl) ethyl benzoate], the melting point was 128 to 130 °C. For the same molecule, in data set [1] (setting [3]), the 50% inhibitory concentration (IC50) turned out to be 3.66 µM. Moreover, the IC50 in data set [2] (setting [4]) was greater than 10 µM. In “in vitro”, the CC50 at 72 h was determined as 104 µM.
As to `COc1ccc([C@@H](CNC(=O)CCc2ccccc2)OC(=O)CCc2ccccc2)cc1OC` [Compound 43, (S)-1-(3,4-dimethoxyphenyl)-2-(3-phenylpropanamido)ethyl 3-phenyl propanoate], the melting point fell in the range of 82 to 84 °C. Also, the 50% inhibitory concentration (IC50) in data set [1] (setting [3]) stood at 2.86 µM. Moreover, the IC50 in data set [2] (setting [4]) was greater than 10 µM. The same molecule had a CC50 at 72 h in the data set “in vitro” of 39.3 µM.
`COc1ccc([C@H](CNC(=O)CCc2ccccc2)OC(=O)CCc2ccccc2)cc1OC` [Compound 44, (R)-1-(3,4-dimethoxyphenyl)-2-(3-phenylpropanamido)ethyl 3-phenyl propanoate] had a melting point of 77 to 78 °C. In data set [1] (setting [3]), the IC50 worked out at 5.86 µM. The IC50 in data set [2] (setting [4]) was greater than 10 µM. The molecule also came in with a CC50 at 72 h in the data set “in vitro” of 73.2 µM.
The matching figures for `COc1ccc([C@@H](CNC(=O)/C=C/c2ccc(O[Si](C)(C)C(C)(C)C)cc2)OC(=O)/C=C/c2ccc(O[Si](C)(C)C(C)(C)C)cc2)cc1OC` [Compound 48, (S)-2-((E)-3-(4-((tert-butyldimethylsilyl)oxy)phenyl)acrylamido)-1-(3,4-dimethoxyphenyl)ethyl (E)-3-(4-((tert-butyldimethylsilyl)oxy)phenyl)acrylate]: 63 to 65 °C, 7.92 µM, 3.37 µM and 40.8 µM.
The matching figures for `COc1ccc([C@@H](COC(=O)/C=C/c2ccccc2)NC(=O)/C=C/c2ccccc2)cc1OC` [Compound 55, (S)-2-cinnamamido-2-(3,4-dimethoxyphenyl)ethyl cinnamate]: 117 to 120 °C, greater than 10 µM, greater than 10 µM and 55.6 µM.
